Measured values published in patent publication US20080226596A1, “Therapeutic compositions and methods useful in treating hepatitis” (priority 2006, published 2008).

Key:
[1] = biological target: T1, PRL-3 (Homo sapiens, UniProt O75365); test: In vitro PTPase assay, recombinant PRL-3, DiFMUP substrate; assay type: biochemical; details: comparable conditions
T1 construct: GST (N); made in house; host or cells: DHSa (DH5a) bacteria
Experimental: In vitro PTPase assays were used to determine the effects of compounds on recombinant PTPases, following established procedures using a synthetic phosphotyrosine peptide or DiFMUP as the substrate (Pathak et al., J. Imumol. 167, 3391 (2001)). Briefly, individual PTPases (0.1 µg/reaction) in 50 μL of PTPase buffer (50 mM Tris, pH 7.4) were incubated at 22° C. for 10 minutes or as indicated in the absence or presence of inhibitory compounds. Substrates (0.2 mM phosphotyrosine peptide) were then added and allowed to react at 22° C. for 18 hrs. PTPase activity of individual reactions was measured by adding 100 µL of malachite green solution (UBI) and then quantifying the amounts of free phosphate cleaved by the PTPase from the peptide substrate by spectrometry (OD660 nm). PTPase assays using DiFMUP as a substrate were conducted following a previously described procedure (Matter, et al., Biochem. Biophys. Res. Comm. 283, 1061 (2001)). Relative PTPase activities were calculated based on the formula: (PTPase activity in the presence of an inhibitory compound/PTPase activity in the absence of the compound)× 100%. To assess the reversibility of PTPase inhibition, GST fusion proteins of the PTPases bound on glutathione beads (Pharmacia) were pre-incubated with cold Tris buffer (50 mM Tris, pH 7.0) or Tris buffer containing the inhibitor at 4° C. for 30 minutes. The beads were then washed three times in cold Tris buffer or not washed prior to subjecting to in vitro PTPase assays.

[2] = tested on: WM35 cells; test: WM35 melanoma cell growth; assay type: cell-based, human
Experimental: For cell proliferation assays, cells were grown in 10% FCS culture medium containing various amounts of IFNs and/or sodium stibogluconate in 96 well plates and cultured at 37° C. for 3 or 6 days as indicated. The numbers of viable cells in proliferation assays were determined by MTT assays as described in Phatak et al., J. Immunol. 167, 3391 (2001).

[3] = tested on: Jurkat cells; test: IFN-gamma secretion by Jurkat cells, ELISA; assay type: cell-based, human; details: 16 hrs
Experimental: Jurkat cells were cultured in the absence or presence of various amounts of SSG for 16 hours. The cells and culture medium supernatants were separated by centrifugation (1,000 g, 10 min). The amounts of IFN-gamma in the culture medium supernatants were quantified using an ELISA kit (R.D. system, Minneapolis, Minn.) following the manufacturer's protocol.

[4] = tested on: NB4 cells; test: NB4 cell cycle analysis; assay type: cell-based, human; details: 3 days; sodium stibogluconate 250 μg/ml, ATRA 1 μM
Experimental: The cell cycle was analyzed by flow cytometry after 3 days of culture of NB4 cells in the absence or presence of sodium stibogluconate (250 µg/ml) or ATRA (1 μM). Briefly, the cells were fixed in cold ethanol and incubated for 30 minutes at 4° C. in the dark with a solution of 50 […], 1 mg/ml RNase and 0.1% NP-40. Analysis was performed immediately after staining using the CELLFIT program (Becton Dickinson, Mountain View, Calif.).

[5] = biological target: T2, PTP1B (Homo sapiens, UniProt P18031); test: In vitro PTPase assay, GST/PTP1B; assay type: biochemical; details: compared with levamisole, pentamidine, ketoconazole
T2 construct: GST; purchased Upstate Biotechnology Inc. (Lake Placid, N.Y.)
T2 sequence (P18031 whole entry, species assumed): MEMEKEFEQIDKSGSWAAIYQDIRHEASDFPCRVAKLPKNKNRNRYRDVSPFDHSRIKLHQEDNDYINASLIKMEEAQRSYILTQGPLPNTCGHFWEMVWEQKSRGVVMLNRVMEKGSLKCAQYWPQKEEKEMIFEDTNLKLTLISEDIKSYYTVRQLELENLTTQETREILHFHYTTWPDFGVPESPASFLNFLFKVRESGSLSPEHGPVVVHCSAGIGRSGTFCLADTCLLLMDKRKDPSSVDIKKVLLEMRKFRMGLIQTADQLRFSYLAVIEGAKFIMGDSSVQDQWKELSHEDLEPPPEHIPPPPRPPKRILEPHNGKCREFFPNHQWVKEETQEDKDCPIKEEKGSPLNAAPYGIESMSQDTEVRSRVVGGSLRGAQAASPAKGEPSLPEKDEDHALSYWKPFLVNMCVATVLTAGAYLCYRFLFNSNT
Experimental: In vitro PTPase activities were measured using the commercial protein tyrosine phosphatase assay kit (Upstate Biotechnology, Inc. (“UBI”)) following established procedure known to one of skill in the art. This assay measures the in vitro dephosphorylation of a synthetic phosphotyrosine peptide of the sequence Arg-Arg-Leu-Ile-Glu-Asp-Ala-Gle-Tyr-Ala-Ala-Arg-Gly, wherein the tyrosine is phosphorylated (SEQ ID NO: 3). Briefly, 0.01 µg of GST/PTPase fusion proteins was incubated in 50 μL of Tris buffer (10 mM Tris, pH 7.4) containing different concentrations of inhibitors or chemicals (0-1,000 μg/ml) at 22° C. for 10 minutes, followed by addition of 0.2 mM of the phosphotyrosine peptide and incubation at 22° C. for 18 hours. 100 μL of Malachite Green solution was added and incubated for 5 minutes, and the absorbance at 660 nm was measured after 5 minutes.
In vitro PTPase assays were used to determine the effects of levamisole (Sigma), pentamidine (American Pharmaceutical Partners, Inc.), and ketoconazole (Sigma) on recombinant PTPases, following established procedures (Pathak et al., J. Imumol. 167, 3391 (2001); Pathak et al., Leukemia 16, 2285 (2002), Yi et al., J. Immunol. 169, 5978 (2002)) using a synthetic phosphotyrosine peptide or DiFMUP as the substrate as detailed above in section I.A.2.

[6] = tested on: TF-1 cells; test: TF-1 cell proliferation assay; assay type: cell-based, human
Experimental: The murine hematopoietic cell line Baf3 was maintained in RPMI 1640 medium supplemented with 10% fetal calf serum (FCS) and murine IL-3 (20 units/ml) as described previously in Damen et al., J. Biol. Chem. 270, 23402 (1995). Human myeloid cell line TF-1 was maintained in RPMI 1640 supplemented with 10% FCS and 40 ng/ml of recombinant human GM-CSF as described previously in Thomassen et al., Clin. Immunol. 95, 85 (2000). For cell proliferation assays, cells were washed in 10% FCS medium twice, resuspended in 10% FCS medium, incubated at 37° C. for 16 hours, and then cultured at 37° C. in 10% FCS medium containing various amounts of cytokines, sodium stibogluconate, or potassium antimonyl tartrate for 3-6 days as indicated. The cell numbers in proliferation assays were determined by an MTT assay or by microscopic cell counting as indicated.

T1 sequence (O75365 whole entry): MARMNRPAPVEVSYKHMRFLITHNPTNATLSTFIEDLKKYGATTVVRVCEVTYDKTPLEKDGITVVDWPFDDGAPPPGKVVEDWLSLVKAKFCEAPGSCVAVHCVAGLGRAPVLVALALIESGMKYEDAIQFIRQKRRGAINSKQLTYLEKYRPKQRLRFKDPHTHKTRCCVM

O.O.O.O.O.O.O.O.O.O=C([O-])[C@@H]1[O][Sb]2([O-])([O][Sb]34([OH])[O][C@H]([C@H](O)CO)[C@H]([O]3)[C@H](C(=O)[O-])[O]4)[O][C@H]([C@H](O)CO)[C@@H]1[O]2.[Na+].[Na+].[Na+] [sodium stibogluconate]
inhibition of PRL-3 with DiFMUP substrate [1]: also detected | effect on WM35 cells [2]: minimally affected | IFN-gamma secretion by Jurkat T cells [3]: increased amounts of IFN-gamma | NB4 cell cycle effect [4]: significant increase of cells at S phase | inhibition of PTP1B [5]: only modestly effective | effect on GM-CSF-induced cell growth ([6]; 12.5-50 μg/ml): no negative effect on GM-CSF-induced cell growth | GM-CSF-induced TF-1 proliferation ([6]; sodium stibogluconate 50 μg/ml, GM-CSF 5-40 ng/ml): augmented
